Assays:
[1] = tested on: velvetleaf; assay: Test A postemergence; format: in vivo, Abutilon theophrasti; conditions: Abutilon theophrasti, post-emergence, 240 h, 0 to 100 scale (0 no effect, 100 complete control), approx. 10 d, read-out: Plant response rating, Velvetleaf
In short: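 Herbicidal response was scored on plants treated pre- or postemergence with surfactant-containing, non-phytotoxic solvent formulations. Preemergence meant a directed spray onto soil (loam–sand) holding sown seed; postemergence plants were at one to two leaves.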

[2] = tested on: ryegrass, Italian; assay: Test C preemergence; format: in vivo, Lolium multiflorum; conditions: for Ryegrass, Italian plant response rating (0 to 100): Preemergence, visual rating after 13 to 15 d
From the text: (§1) Seeds of plant species selected from blackgrass (Alopecurus myosuroides), ryegrass, Italian (Italian ryegrass, Lolium multiflorum), wheat (winter wheat, Triticum aestivum), galium (catchweed bedstraw, Galium aparine), corn (Zea mays), crabgrass, large (large crabgrass, Digitaria sanguinalis), foxtail, giant, (giant foxtail, Setaria faberii), johnsongrass (Sorghum halepense), lambsquarters (Chenopodium album), morningglory (Ipomoea coccinea), nutsedge, yellow (yellow nutsedge, Cyperus esculentus), pigweed (Amaranthus retroflexus), ragweed (common ragweed, Ambrosia elatior), soybean (Glycine max), barnyardgrass (Echinochloa crus-galli), oilseed rape (Brassica napus), waterhemp (common waterhemp, Amaranthus rudis), and velvetleaf (Abutilon theophrasti) were planted into a blend of loam soil and sand and treated preemergence with test chemicals formulated in a non-phytotoxic solvent mixture which included a surfactant. At the same time, plants selected from these crop and weed species and also chickweed (common chickweed, Stellaria media), oat, wild (wild oat, Avena fatua), and kochia (Kochia scoparia), were planted in pots containing Sunshine Redi-Earth® planting medium comprising spaghnum peat moss, vermiculite, starter nutrients and dolomitic limestone and treated with postemergence applications of test chemicals formulated in the same manner. Plants ranged in height from 2 to 18 cm (1- to 4-leaf stage) for postemergence treatments. […] A dash (-) response means no test result.

[3] = tested on: galium; assay: Test C preemergence; format: in vivo, Galium aparine; conditions: for Plant response rating (scale of 0 to 100 where 0 is no effect and 100 is complete control): Galium, preemergence; for Galium plant response rating (0 to 100): Preemergence, visual rating after 13 to 15 d
From the text: as §1

[4] = tested on: johnsongrass; assay: Test C preemergence; format: in vivo, Sorghum halepense; conditions: for Plant response rating (scale of 0 to 100 where 0 is no effect and 100 is complete control): Johnsongrass, preemergence; for Johnsongrass plant response rating (0 to 100): Preemergence, visual rating after 13 to 15 d
From the text: as §1

[5] = tested on: nutsedge, yellow; assay: Test C preemergence; format: in vivo, Cyperus esculentus; conditions: for Nutsedge, Yellow plant response rating (0 to 100): Preemergence, visual rating after 13 to 15 d
From the text: as §1

[6] = tested on: blackgrass; assay: Test D preemergence; format: in vivo, Alopecurus myosuroides; conditions: scale 0 to 100
From the text: (§2) Seeds of plant species selected from bluegrass (annual bluegrass, Poa annua), blackgrass (Alopecurus myosuroides), canarygrass (Phalaris minor), chickweed (common chickweed, Stellaria media), galium (catchweed bedstraw, Galium aparine), bromegrass, down (downy bromegrass, Bromus tectorum), Russian thistle (Salsola kali), field poppy (Papaver rhoeas), field violet (Viola arvensis), foxtail, green (green foxtail, Setaria viridis), deadnettle (henbit deadnettle, Lamium amplexicaule), ryegrass, Ital. (Italian ryegrass, Lolium multiflorum), kochia (Kochia scoparia), lambsquarters (Chenopodium album), oilseed rape (Brassica napus), pigweed (Amaranthus retroflexus), chamomile (scentless chamomile, Matricaria inodora), speedwell (bird's-eye speedwell, Veronica persica), barley, spring (spring barley, Hordeum vulgare), wheat, spring (spring wheat, Triticum aestivum), buckwheat, wild (wild buckwheat, Polygonum convolvulus), wild mustard (Sinapis arvensis), oat, wild (wild oat, Avena fatua), radish, wild (wild radish, Raphanus raphanistrum), […]), barley, winter (winter barley, Hordeum vulgare), and wheat, winter (winter wheat, Triticum aestivum) were planted into a silt loam soil and treated preemergence with test chemicals formulated in a non-phytotoxic solvent mixture which included a surfactant. At the same time, these species were planted in pots containing Sunshine Redi-Earth® planting medium comprising spaghnum peat moss, vermiculite, starter nutrients and dolomitic limestone and treated with postemergence applications of the test chemicals formulated in the same manner. Plants ranged in height from 2 to 18 cm (1- to 4-leaf stage). Treated plants and controls were maintained in a controlled growth environment for 14 to 21 d after which time all species were compared to controls and visually evaluated. […] A dash (-) response means no test result.

[7] = tested on: barley, spring; assay: Test D preemergence; format: in vivo, Hordeum vulgare; conditions: scale 0 to 100
From the text: as §2

[8] = tested on: barley, winter; assay: Test D preemergence; format: in vivo, Hordeum vulgare; conditions: scale 0 to 100
From the text: as §2

[9] = tested on: wild mustard; assay: Test D preemergence; format: in vivo, Sinapis arvensis; conditions: scale 0 to 100
From the text: as §2

[10] = tested on: chickweed; assay: Test D postemergence; format: in vivo, Stellaria media; conditions: scale 0 to 100
From the text: as §2

[11] = tested on: galium; assay: Test D postemergence; format: in vivo, Galium aparine; conditions: scale 0 to 100
From the text: as §2

[12] = tested on: deadnettle; assay: Test D postemergence; format: in vivo, Lamium amplexicaule; conditions: scale 0 to 100
From the text: as §2

CCc1nc(-c2ccc(C(F)(F)F)cc2)nn1Cc1ccnc(C(F)(F)F)c1 [Compound 1, 4-[[5-ethyl-3-[4-(trifluoromethyl)phenyl]-1H-1,2,4-triazol-1-yl]methyl]-2-(trifluoromethyl)pyridine]
pest or weed control at 125 g/ha ([1]; 125 g ai/ha): 90%
pest or weed control at 500 g/ha ([1]; 500 g ai/ha): 100%
Ryegrass, Italian plant response rating (0 to 100) ([2]; 31 g ai/ha): 5
Ryegrass, Italian plant response rating (0 to 100) ([2]; 62 g ai/ha): 10
Plant response rating (scale of 0 to 100 where 0 is no effect and 100 is complete control) ([2]; Ryegrass, Italian, preemergence, 125 g ai/ha): 90
Plant response rating (scale of 0 to 100 where 0 is no effect and 100 is complete control) ([3]; 125 g ai/ha): 100
Plant response rating (scale of 0 to 100 where 0 is no effect and 100 is complete control) ([3]; 250 g ai/ha): 100
Galium plant response rating (0 to 100) ([3]; 31 g ai/ha): 70
Galium plant response rating (0 to 100) ([3]; 62 g ai/ha): 98
Plant response rating (scale of 0 to 100 where 0 is no effect and 100 is complete control) ([4]; 125 g ai/ha): 55
Plant response rating (scale of 0 to 100 where 0 is no effect and 100 is complete control) ([4]; 250 g ai/ha): 80
Johnsongrass plant response rating (0 to 100) ([4]; 31 g ai/ha): 25
Johnsongrass plant response rating (0 to 100) ([4]; 62 g ai/ha): 35
Plant response rating (scale of 0 to 100 where 0 is no effect and 100 is complete control) ([5]; Nutsedge, Yellow, preemergence, 250 g ai/ha): 15
Nutsedge, Yellow plant response rating (0 to 100) ([5]; 31 g ai/ha): 0
Nutsedge, Yellow plant response rating (0 to 100) ([5]; 62 g ai/ha): 5
Plant response rating: Blackgrass ([6]; 31 g ai/ha): 15
Plant response rating: Blackgrass ([6]; 62 g ai/ha): 35
Plant response rating: Blackgrass ([6]; 125 g ai/ha): 35
Plant response rating: Blackgrass ([6]; 250 g ai/ha): 65
Plant response rating: Barley, Spring ([7]; 31 g ai/ha): 0
Plant response rating: Barley, Spring ([7]; 62 g ai/ha): 0
Plant response rating: Barley, Spring ([7]; 125 g ai/ha): 0
Plant response rating: Barley, Spring ([7]; 250 g ai/ha): 5
Plant response rating: Barley, Winter ([8]; 31 g ai/ha): 0
Plant response rating: Barley, Winter ([8]; 62 g ai/ha): 5
Plant response rating: Barley, Winter ([8]; 125 g ai/ha): 10
Plant response rating: Barley, Winter ([8]; 250 g ai/ha): 20
Plant response rating: Mustard, Wild ([9]; 62 g ai/ha): 100
Plant response rating: Mustard, Wild ([9]; 125 g ai/ha): 100
Plant response rating: Mustard, Wild ([9]; 250 g ai/ha): 100
Plant response rating: Chickweed ([10]; 31 g ai/ha): 75
Plant response rating: Chickweed ([10]; 62 g ai/ha): 80
Plant response rating: Chickweed ([10]; 125 g ai/ha): 85
Plant response rating: Chickweed ([10]; 250 g ai/ha): 90
Plant response rating: Galium ([11]; 31 g ai/ha): 70
Plant response rating: Galium ([11]; 62 g ai/ha): 70
Plant response rating: Galium ([11]; 125 g ai/ha): 90
Plant response rating: Galium ([11]; 250 g ai/ha): 90
Plant response rating: Deadnettle ([12]; 31 g ai/ha): 65
Plant response rating: Deadnettle ([12]; 62 g ai/ha): 60
Plant response rating: Deadnettle ([12]; 125 g ai/ha): 70
Plant response rating: Deadnettle ([12]; 250 g ai/ha): 85

Reference: patent publication US10681909B2, “Herbicidal triazoles” (FMC Corporation, priority 2014, dated 2020)
